Reference: patent publication US8765946B2, “Methods of preparing and using quinazoline and quinoline derivatives” (priority 2006, dated 2014)
pEC50: −log10 of the molar value.

Key:
Format in all cases: cell-based
[1] = molecular target: T1, A431 cells EGFR-TK phosphorylation stimulated by EGF (Homo sapiens, UniProt P00533); experiment: Inhibition of cellular EGFR-TK phosphorylation stimulated by EGF in A431 cells; settings: for inhibition at 3 µM: A-431, concentration of 3 μM, A431 cells, EGF stimulated, one-time measurement at a single concentration (preliminary selection), NA = No activity, read-out: Inhibition Percent (%); for pEC50: A431 cells EGFR-TK phosphorylation stimulated by EGF (Table 4)
T1 construct: against A431 cells EGFR-TK; endogenous in cells; host or cells: A431 cells
T1 sequence (P00533 25-1210): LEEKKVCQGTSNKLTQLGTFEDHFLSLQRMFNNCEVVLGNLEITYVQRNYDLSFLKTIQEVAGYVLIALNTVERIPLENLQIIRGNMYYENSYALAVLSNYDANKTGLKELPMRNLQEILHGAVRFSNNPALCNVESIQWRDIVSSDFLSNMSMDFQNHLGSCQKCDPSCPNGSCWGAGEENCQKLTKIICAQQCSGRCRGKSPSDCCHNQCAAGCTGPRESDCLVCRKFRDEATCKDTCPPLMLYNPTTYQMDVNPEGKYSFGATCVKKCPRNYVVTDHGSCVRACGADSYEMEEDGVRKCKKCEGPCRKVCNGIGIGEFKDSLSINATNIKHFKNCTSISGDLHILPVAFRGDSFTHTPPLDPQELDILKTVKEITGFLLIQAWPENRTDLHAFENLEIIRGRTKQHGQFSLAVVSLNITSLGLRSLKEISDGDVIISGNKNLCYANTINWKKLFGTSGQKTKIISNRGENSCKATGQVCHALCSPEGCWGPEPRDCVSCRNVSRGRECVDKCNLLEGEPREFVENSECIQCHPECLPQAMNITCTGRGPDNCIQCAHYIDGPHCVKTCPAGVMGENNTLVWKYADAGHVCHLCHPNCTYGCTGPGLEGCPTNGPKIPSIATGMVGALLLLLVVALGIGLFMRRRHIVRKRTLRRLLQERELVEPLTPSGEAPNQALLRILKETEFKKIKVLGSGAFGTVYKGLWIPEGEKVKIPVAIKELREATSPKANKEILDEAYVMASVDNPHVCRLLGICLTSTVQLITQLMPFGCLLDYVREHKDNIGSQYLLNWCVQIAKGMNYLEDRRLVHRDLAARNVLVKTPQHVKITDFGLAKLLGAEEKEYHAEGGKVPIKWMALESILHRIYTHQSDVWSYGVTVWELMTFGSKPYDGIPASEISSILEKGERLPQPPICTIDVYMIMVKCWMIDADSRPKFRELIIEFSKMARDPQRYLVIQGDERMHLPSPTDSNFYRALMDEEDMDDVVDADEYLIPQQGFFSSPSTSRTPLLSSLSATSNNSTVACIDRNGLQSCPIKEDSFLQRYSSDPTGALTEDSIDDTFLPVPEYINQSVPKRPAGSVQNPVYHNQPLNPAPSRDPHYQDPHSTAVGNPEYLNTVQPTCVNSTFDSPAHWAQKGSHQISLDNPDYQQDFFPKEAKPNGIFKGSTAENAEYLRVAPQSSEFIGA
Procedure: Inhibition Experiment of Cellular Epidermal Growth Factor Receptor Tyrosine Kinase
1) A431 cells were cultured in a medium which was prepared by adding 10% FCS into another medium comprising 50% DMEM and 50% F12.
2) A431 cells grown in six-well plates were cultured in a serum-free medium for 24 hours. During the 24 hour period the medium was replenished once after 12 hours.
3) A solution containing a compound to be assessed was added the A431 cells and the cells were cultured for 2 hours, supplemented twice by a medium free of the compound, and then EGF (100 ng/well) was added, and cultured for 5 minutes.
4) A431 cell homogenate was prepared by Laemili buffer which comprised 2% sodium dodecyl sulfonate (SDS), 5% 2-mercaptoethanol, 10% glycerol and 5 mM Tris (pH 6.8).
5) The A431 cell homogenate was heated for 5 minutes at 100° C.
6) Proteins in the A431 cell homogenates were separated by PAGE and transferred onto a nitrocellulose membrane, and an infrared reading was obtained.

[2] = test system: A431 cells; experiment: Cell growth inhibition assay (MTS assay), A431; settings: Homo sapiens, A-431; A431 cells; MTS, 48 hours; read-out: Growth inhibition activity EC50
[3] = test system: BT474 cells; experiment: BT-474 cell growth inhibition assay (SRB assay); settings: Homo sapiens, concentration of 3 μM, 72 h, read-out: Inhibition Percent (%)
Procedure: BT-474 Cell Growth Inhibition Assay (SRB Assay)
BT-474 human breast cancer cell lines were kindly provided by Dr. Changnian Liu, Pharmaron Beijing Co., Ltd.
BT-474 cells were cultured in 37° C., 5% CO2, saturated humidity until logarithmic phase. Discarded culture medium, washed cells once by PBS. Added 1 ml Trypsin/EDTA solution, stood at 37° C. for 5 min, allowed the cells to detach. Added culture medium, adjusted the cells density to 1×10^5 cells/ml.
Day 0, added 100 μl/well cells suspension to 96-well cell culture plates. Incubated overnight to let the cells attach completely.
Day 1, compounds (2 mM in DMSO as stock solution) was diluted to 20 μM in EMEM. Then a fourfold serial dilution was made. These diluted compounds were made as 10× reaction solutions, and the concentration of DMSO was kept at 1%.
Added 80 μl culture medium and 20 μl 10× compound reaction solution to the testing wells, or vehicle control to the control wells. Co-incubated cells with compounds for another 72 h.
Day 3, fixed cellular protein by the addition of 100 μl/well of 10% TCA (diluting from 50% TCA) at 4° C. for 1 h. Rinsed TCA using plate washer, and washed five times using distilled water. Removed the residual wash solution with a piece of absorbent paper. Added 100 μl/well 0.4% SRB solution, allowed a 15-30 min staining period. Removed the SRB, and washed the culture plates five times using 1% acetic acid. Removed the residual wash solution with a piece of absorbent paper. Air-dried the culture plates, dissolved the protein-bound dye with 100 μl/well of 10 mM Tris base solution. Shook the plates until the dye was dissolved completely.

[4] = test system: A431 cells; experiment: A431 cell growth inhibition assay (MTT assay); settings: Homo sapiens; for inhibition at 3 µM: A-431, concentration of 3 μM, 72 hours, read-out: Inhibition Percent (%); for pEC50: A-431, 72 hours (Table 11)
Procedure: A431 Cell Growth Inhibition Assay (MTT Assay)
A431, an epidermoid carcinoma cell line; The Cell Bank, Committee on Type Culture Collection Chinese Academy of Science, Shanghai.
Mix prepared medium DMEM and F12 in the proportion of 1:1, then add FBS to a final concentration of 10%.
Dissolved the dried compound sample with 100% DMSO to 2 mM. Then diluted the dissolved compound to 20 μM with cell complete growth medium.
Prior to the assay, cultured the A431 to logarithmic phase, and then removed medium from cell monolayers and wash the cells once with sterilized PBS. Aspriated the PBS and added 2 mL trypsin solution to cover the cell growth surface, removed 1 mL trypsin solution after soaking about 1 minute. Transferred the cell-culture plate to CO2 incubator; incubated at 37° C. for 8 minutes to allow cells to dissociate. After the cells detached, added 4 mL complete growth medium containing FBS with pipette to disperse them off and mixed gently to obtain a homogeneous cell suspension. Aspirated some of the cell suspension to a sterilized polypropylene tube, and determined the cell concentration by counting in a hematocytometer chamber under a microscope. Adjusted the cell concentration with growth medium to obtain 2.5×10^4 cells per milliliter.
Added 100 μL adjusted cell suspension to the 96-well cell-culture plate and occasionally mixed the cell suspension during the seeding process. After seeding cells, incubated the plate at 37° C. overnight with 5% CO2 in the CO2 incubator for cell attachment.
After the cell attachment, added 100 μL prepared compound solutions to the corresponding wells (add PBS to the ambient wells of the plate). The final compound concentrations ranged from 10 μM to 1.52 nM. Incubated the plate at 37° C. with 5% CO2 for 72 hours in the CO2 incubator.
After the exposure to the compound, removed the cell culture supernatant. Then added 100 μL 0.5 mg/mL MTT solution which dissolved in the growth medium without FBS. Incubated the plate at 37° C. with 5% CO2 for another 4 hours to allow the MTT reaction to proceed.
After the MTT reaction, discarded the MTT reaction solution. Added 100 μL DMSO to each well, and the plate was agitated on the plate shaker for several minutes to dissolve the formazan. Then, detected the absorbance at 490 nm using microplate reader.

inhibition at 3 µM [1] [%] | pEC50 [2] | pEC50 [1] | pEC50 [4] | SMILES | inhibition at 3 µM [3] [%] | inhibition at 3 µM [4] [%]
41 | 5.72 |  |  | COCCN1CCC(=CC(=O)Nc2cc3c(Nc4ccc(OCc5ccccn5)c(Cl)c4)ncnc3cc2OC)CC1 [Example 118, N-(4-(3-chloro-4-(pyridin-2-ylmethoxy)phenylamino)-7-methoxyquinazolin-6-yl)-2-(1-(2-methoxyethyl)piperidin-4-ylidene)acetamide] |  | 
65 | 5.30 | 6.40 |  | C#Cc1cccc(Nc2ncnc3ccc(NC(=O)C=C4CCN(CCOC)CC4)cc23)c1 [Example 7, N-(4-(3-ethynylphenylamino)quinazolin-6-yl)-2-(1-(2-methoxyethyl)piperidin-4-ylidene)acetamide] |  | 
71 | 5.82 |  |  | O=C(C=C1CCNCC1)Nc1ccc2ncnc(Nc3ccc4[nH]ccc4c3)c2c1 [Example 41, N-(4-(1H-indol-5-ylamino)quinazolin-6-yl)-2-(piperidin-4-ylidene)acetamide] |  | 
 |  |  |  | N#Cc1cnc2ccc(NC(=O)C=C3CCNCC3)cc2c1Nc1ccc(F)c(Cl)c1 [Example 173, N-(4-(3-chloro-4-fluorophenylamino)-3-cyanoquinolin-6-yl)-2-(piperidin-4-ylidene)acetamide] | 44 | 87
 |  |  |  | COCCOc1cc2ncc(C#N)c(Nc3ccc(F)c(Cl)c3)c2cc1NC(=O)C=C1CCNCC1 [Example 149, N-(4-(3-chloro-4-fluorophenylamino)-3-cyano-7-(2-methoxyethoxy)quinolin-6-yl)-2-(piperidin-4-ylidene)acetamide] | 53 | 92
 |  |  |  | C#Cc1cccc(Nc2c(C#N)cnc3ccc(NC(=O)C=C4CCNCC4)cc23)c1 [Example 170, N-(3-cyano-4-(3-ethynylphenylamino)quinolin-6-yl)-2-(piperidin-4-ylidene)acetamide] | 56 | 88
 |  |  | 6.85 | C#Cc1cccc(Nc2c(C#N)cnc3cc(OCC)c(NC(=O)C=C4CCNCC4)cc23)c1 [Example 152, N-(3-cyano-7-ethoxy-4-(3-ethynylphenylamino)quinolin-6-yl)-2-(piperidin-4-ylidene)acetamide] | 59 | 95
 |  |  |  | CCOc1cc2ncc(C#N)c(Nc3ccc(OCc4cccc(F)c4)c(Cl)c3)c2cc1NC(=O)C=C1CCN(CCOC)CC1 [Example 163, N-(4-(4-(3-fluorobenzyloxy)-3-chlorophenylamino)-3-cyano-7-ethoxyquinolin-6-yl)-2-(1-(2-methoxyethyl)piperidin-4-ylidene)acetamide] | 87 | 40
57 | 4.52 | 6.01 |  | O=C(C=C1CCNCC1)Nc1ccc2ncnc(Nc3cccc(Cl)c3)c2c1 [Example 36, N-(4-(3-chlorophenylamino)quinazolin-6-yl)-2-(piperidin-4-ylidene)acetamide] |  | 
 |  |  |  | CCOc1cc2ncc(C#N)c(Nc3ccc(F)c(Cl)c3)c2cc1NC(=O)C=C1CCN(C)CC1 [Example 156, N-(4-(3-chloro-4-fluorophenylamino)-3-cyano-7-ethoxyquinolin-6-yl)-2-(1-methylpiperidin-4-ylidene)acetamide] | 60 | 89
85 | 5.70 | 6.82 |  | C#Cc1cccc(Nc2ncnc3ccc(NC(=O)C=C4CCNCC4)cc23)c1 [Example 3, N-(4-(3-ethynylphenylamino)quinazolin-6-yl)-2-(piperidin-4-ylidene)acetamide] |  | 
68 | 4.89 | 6.12 |  | C[C@H](Nc1ncnc2ccc(NC(=O)C=C3CCNCC3)cc12)c1ccccc1 [Example 34, N-(4-((S)-1-phenylethylamino)quinazolin-6-yl)-2-(piperidin-4-ylidene)acetamide] |  | 
78 | 5.74 | 6.24 |  | C#Cc1cccc(Nc2ncnc3ccc(NC(=O)C=C4CCN(C)CC4)cc23)c1 [Example 4, N-(4-(3-ethynylphenylamino)quinazolin-6-yl)-2-(1-methylpiperidin-4-ylidene)acetamide] |  | 
 |  |  |  | CCOc1cc2ncc(C#N)c(Nc3ccc(F)c(Cl)c3)c2cc1NC(=O)C=C1CCN(CCOC)CC1 [Example 157, N-(4-(3-chloro-4-fluorophenylamino)-3-cyano-7-ethoxyquinolin-6-yl)-2-(1-(2-methoxyethyl)piperidin-4-ylidene)acetamide] | 59 | 85
 |  |  |  | C#Cc1cccc(Nc2c(C#N)cnc3cc(OCC)c(NC(=O)C=C4CCN(CCOC)CC4)cc23)c1 [Example 159, N-(3-cyano-7-ethoxy-4-(3-ethynylphenylamino)quinolin-6-yl)-2-(1-(2-methoxyethyl)piperidin-4-ylidene)acetamide] | 53 | 83
95 | 6.82 |  |  | C#Cc1cccc(Nc2ncnc3cc(OCCCOC)c(NC(=O)C=C4CCNCC4)cc23)c1 [Example 50, N-(4-(3-ethynylphenylamino)-7-(3-methoxypropoxy)quinazolin-6-yl)-2-(piperidin-4-ylidene)acetamide] |  | 
 |  |  |  | N#Cc1cnc2ccc(NC(=O)C=C3CCNCC3)cc2c1Nc1ccc(OCc2ccccn2)c(Cl)c1 [Example 166, N-(4-(3-chloro-4-(pyridin-2-ylmethoxy)phenylamino)-3-cyanoquinolin-6-yl)-2-(ppiperidin-4-ylidene)acetamide] | 85 | 49
96 | 6.60 |  | 5.84 | CCOc1cc2ncc(C#N)c(Nc3ccc(OCc4ccccn4)c(Cl)c3)c2cc1NC(=O)C=C1CCNCC1 [Example 143, N-(4-(3-chloro-4-(pyridin-2-ylmethoxy)phenylamino)-3-cyano-7-ethoxyquinolin-6-yl)-2-(piperidin-4-ylidene)acetamide] | 55 | 70
 |  |  |  | COCCOc1cc2ncc(C#N)c(Nc3cccc(Br)c3)c2cc1NC(=O)C=C1CCNCC1 [Example 171, N-(4-(3-bromophenylamino)-3-cyano-7-(2-methoxyethoxy)quinolin-6-yl)-2-(piperidin-4-ylidene)acetamide] | 60 | 86

SMILES | inhibition at 3 µM [1] [%] | pEC50 [2] | pEC50 [1] | pEC50 [4] | inhibition at 3 µM [3] [%] | inhibition at 3 µM [4] [%]
N#Cc1cnc2ccc(N)cc2c1Nc1cccc(Br)c1 [Example 134, 6-amino-4-(3-bromophenylamino)quinoline-3-carbonitrile] | 59 | 6.05 |  |  |  | 
